In patent publication US20030165475A1, “Non-lethal methods for conditioning a recipient for bone marrow transplantation” (priority 1993, published 2003):
“And” between values parts separate entries of the source, which are not always exact repeats. Identical values can stand only once. Like-named read-outs stand apart in the source and are kept apart here.

What was measured:
baboons = tested on: baboons
Description: In addition-to TBI, TLI was also tested in conditioning recipients for bone marrow transplantation. As a single dose, TLI was simply a modified form of TBI in that the method of delivery was the same, except that only certain parts of the recipient's body was exposed to the irradiation. […] In the following study, baboons were treated with a single dose of 7.5 Gy of TLI at day 0 followed by transfer of allogeneic baboon bone marrow cells with at least one MHC disparity. […] Xenogeneic transplantation with human cells was also performed in baboons conditioned with TLI.

C57BL/6J mice = conditions: C57BL/6J (n=6); 300 cGy TBI + 200 mg/kg CyP
Excerpt: (§1) Three to five week old C57BL/10-Cd4^tml(CD4-KO;H2^b, n=5), C57BL/6J-CD4^tm/mak (CD4-KO; H2^b, n=15) CD57BL/6JCD8α^tm/mak (CD8-KO; H2^b, n=16), C57BL/6J (B6; H2^b, n=6), C57BL/6-6d4^tm/mak (CD4-KO) and C57BL/6-Cd8^tm/mak (CD8-KO)recipient mice, as well as three to five week old B10.BR/SgSnJ (B10.BR, H2^k) donor mice were purchased from the Jackson Laboratory (Bar Harbor, Me.). Knock-out mice were housed in a special pathogen-free barrier facility, while donor mice were housed in a conventional barrier animal facility. Mice were cared for according to National Institute of Health animal care guidelines.
(§2) Bone marrow was prepared as previously described (Ildstad and Sachs, Nature, 307:168 (1984)). Briefly, B10.BR donor mice were euthanized and tibias and femurs harvested. Bone marrow was expelled from the bones with Media 199 (Gibco, Grand Island, N.Y.) containing 10 μg/ml Gentamicin (Gibco) (MEM). The cells were filtered through sterile nylon mesh with 100 μm pores, spun for minutes at 200×g and 4° C., and resuspended in MEM. A cell count was performed and the cells were diluted to a final concentration of 15×10^6 bone marrow cells per 1 ml of MEM.
(§3) CD4-KO and CD8-KO mice were treated with TBI from a cesium source (Gamma-cell 40, Nordion, Ontario, Canada). Doses from 0 to 300 cGy were administered according to the experimental groups. Animals were transplanted with 1 ml MEM containing 15×10^6 B10.BR bone marrow cells via lateral tail vein injection within 4 hours after irradiation.
(§4) Peripheral blood was obtained from the mice by tail-vein bleeding. The blood was collected in heparinized Eppendorf tubes 28 days, 3 months and 6 months after BMT. Fifty μl of whole blood were incubated for 7 minutes with 2 ml of lysing buffer (8.29 g of NH4Cl, 1.0 g of KHCO3 and 0.0372 g Na2EDTA in 1 liter H2O to lyse red blood cells. The cells were washed with 2 ml FACS medium (0.36 g NaHCO3, 1.0 g NaN3 and 1.0 g bovine serum albumin in 1 liter Hanks Balanced Salt Solution and spun at 200×g for 10 minutes at 4° C. After the supernatant was carefully decanted, cells were mixed with 10 μl diluted monoclonal antibodies (mAb; details discussed infra) and incubated for 30 minutes at 4° C. in the dark. The appropriate dilution for the use of the mAb was determined in titration experiments prior to use. After the incubation, the cells were washed twice with 2 ml of FACS medium and spun at 200×g for minutes at 4° C. Finally, the cells were fixed with 1% paraformaldehyde in PBS. The analyses were carried out on a FACS-Calibur (Becton Dickinson, Mountain View, Calif.) with CellQuest software (Becton Dickinson).
(§5) PBL were stained with mAb specific for MHC Class I antigens of donor (FITC conjugated anti-H2K^k, 36-7-5, mouse IgG1) and recipient (PE-conjugated anti-H2K^b, AF6-88.5, mouse IgG2a) origin to determine the percentage of donor chimerism. Multi-lineage engraftment was assessed by staining with biotinylated anti-H2K^k (36-7-5, mouse IgG1), FITC-conjugated anti-H2K^b (AF6-88.5, mouse IgG2a) and PE-conjugated lineage markers 3 months after BMT. The biotinylated antibody was recovered with Streptavidin-Allophycocyanin (SA-APC). The following antibodies were used as lineage markers: anti-GR-1 (RB6-8C5, rat IgG2^b); anti-MAC-1 (M1/70, rat IgG2^b); anti-CD4 (RM4-5, rat IgG2a); anti-CD8α (53-6.7, rat IgG2a); anti-B220 (RA3-6B2, rat IgG2a); anti-NK1.1 (PK136, mouse IgG2a); anti-TCR-β chain (H57-597, hamster IgG); and anti-γδ-TCR (GL3, hamster IgG). Non-specific background staining was controlled for by using isotype control antibodies directed against irrelevant antigens and conjugated with the same color as the experimental antibody (i.e., anti-TNP mouse IgG2a conjugated with PE served as isotype control for PE-conjugated anti-H2K^b mouse IgG2a). All mAb were obtained from PharMingen (San Diego, Calif.). SA-APC was purchased from Becton Dickinson (Mountain View, Calif.).

CD4-KO mice = conditions: 300 cGy TBI + 200 mg/kg CyP
Excerpt: as §1, §2, §3, §4, §5

CD8-KO mice = tested on: CD8-KO mice
Excerpt: as §1, §2, §3, §4, §5

O=P1(N(CCCl)CCCl)NCCCO1 (centres unmarked) [CyP, cyclophosphamide]
treated animals with stable donor cell engraftment (baboons; 7.5 Gy TLI + single dose CyP 50 mg/kg at day +2): about 50% | duration of stable engraftment (baboons; 7.5 Gy TLI + two doses of CyP): ≥ 36 weeks | % animals that engrafted (C57BL/6J mice): 0% | CD4-KO mice that engrafted (CD4-KO mice; 15 C57BL/6-Cd4 tm/mak mice): None | % animals that engrafted (CD4-KO mice; C57BL/6-Cd4 tm/mak (n=15)): 0% | % animals that engrafted (CD4-KO mice; C57BL/10-Cd4 tml (n=5)): 0% | animals with donor chimerism (CD8-KO mice; 200 mg/kg CyP alone without irradiation, 28 days after BMT): 6 of 6 and Six of 6 and 6 out of 6 | % animals that engrafted (CD8-KO mice; C57BL/6-Cd8a tm/mak, 300 cGy TBI + 200 mg/kg CyP day 2): 100% | level of donor chimerism (CD8-KO mice; CyP and 100 cGy TBI (n=6)): 11±0.4% | level of donor chimerism (CD8-KO mice; CyP and 200 cGy TBI (n=6)): 32.7±1.5% | average level of donor chimerism (CD8-KO mice; CyP and 300 cGy TBI (n=16)): 45.7%±2.5
